Reference: patent US20230114728A1 (Venatorx Pharmaceuticals, Inc., priority 2019, published 2023)
Converted amounts (≈) assume the structure as drawn.

Legend:
A. baumannii ATCC 19606 = assay: Broth microdilution MIC in CAMHB; assay type: cell-based; conditions: Acinetobacter baumannii, ATCC19606; MHB; read-out: Minimum Inhibitory Concentration, A. baumannii ATCC 19606
Outline: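 Per CLSI broth microdilution, colonies were grown 3-5 h at 37° C in cation-adjusted Mueller Hinton broth, then diluted to a starting inoculum of 2-8×10^5 CFU/mL against 2-fold serial compound dilutions. Plates were incubated 16-20 h at 37° C, and MIC was read visually as the lowest concentration with no growth.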

[1] = tested on: P. aeruginosa (ΔmexAB-oprM); assay: Broth microdilution MIC in CAMHB; assay type: cell-based; conditions: Pseudomonas aeruginosa, read-out: Minimum Inhibitory Concentration, P. aeruginosa ΔmexAB-OprM
Outline: (§1)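 Hyper-permeable or efflux-deficient strains serve to probe outer-membrane penetration. Growth inhibition is scored visually after 16-20 h at 37° C in CAMHB, starting from 2-8×10^5 CFU/mL.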

P. aeruginosa ATCC 27853 = assay: Broth microdilution MIC in CAMHB; assay type: cell-based; conditions: Pseudomonas aeruginosa, ATCC27853; MHB; read-out: Minimum Inhibitory Concentration, P. aeruginosa ATCC 27853
Outline: as §1

E. coli AG100 = assay: Broth microdilution MIC in CAMHB; assay type: cell-based; conditions: Escherichia coli; E. coli AG100 (wild-type parent); MHB; read-out: Minimum Inhibitory Concentration, E. coli AG100
Outline: as §1

[2] = tested on: K. pneumoniae UMM producing SHV-5 and KPC-2; assay: Broth microdilution MIC in CAMHB; assay type: cell-based; conditions: Klebsiella pneumoniae, read-out: Minimum Inhibitory Concentration, K. pneumoniae UMM
Outline: as §1

[3] = tested on: K. pneumoniae 848844 producing SHV-11 and KPC-2; assay: Broth microdilution MIC in CAMHB; assay type: cell-based; conditions: Klebsiella pneumoniae, read-out: Minimum Inhibitory Concentration, K. pneumoniae 848844
Outline: as §1

E. coli 901C = assay: Broth microdilution MIC in CAMHB; assay type: cell-based; conditions: Escherichia coli; E. coli 901C (hyper-permeable); MHB; read-out: Minimum Inhibitory Concentration, E. coli 901C
Outline: as §1

E. coli K12 PBP3 = biological target: T1, E. coli K12 PBP3 (Escherichia coli, UniProt P0AD68); assay: biochemical; assay type: binding
T1 construct: made in house
T1 sequence (P0AD68 1-577): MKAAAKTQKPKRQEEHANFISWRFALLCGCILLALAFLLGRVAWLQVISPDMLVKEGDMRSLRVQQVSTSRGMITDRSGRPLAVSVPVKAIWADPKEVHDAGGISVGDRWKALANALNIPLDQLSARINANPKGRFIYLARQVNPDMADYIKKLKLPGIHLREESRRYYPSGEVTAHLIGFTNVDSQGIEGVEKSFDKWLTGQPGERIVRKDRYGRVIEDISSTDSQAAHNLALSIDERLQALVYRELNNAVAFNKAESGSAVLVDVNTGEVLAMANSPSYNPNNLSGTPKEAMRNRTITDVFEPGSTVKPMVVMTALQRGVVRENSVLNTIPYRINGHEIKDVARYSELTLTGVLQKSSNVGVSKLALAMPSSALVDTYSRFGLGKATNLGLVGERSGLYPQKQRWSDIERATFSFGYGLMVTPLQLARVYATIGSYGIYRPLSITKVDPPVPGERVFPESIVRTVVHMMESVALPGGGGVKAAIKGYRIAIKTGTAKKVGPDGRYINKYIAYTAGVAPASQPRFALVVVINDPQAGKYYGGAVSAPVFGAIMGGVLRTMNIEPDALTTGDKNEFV
Outline: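 A. baumannii PBP2 (2.5 μM) and PBP3 (0.2 μM) were run in 25 mM Tris pH 8.0 buffer with Tween 20; E. coli PBP3 (1.5 μM) and N. gonorrhoeae PBP2 ([…]) in 50 mM Hepes pH 8.0 buffer.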

P. aeruginosa PBP3 = biological target: T2, P. aeruginosa PBP3 (Pseudomonas aeruginosa, UniProt G3XD46); assay: Bocillin-FL fluorescence polarization competition binding assay, P. aeruginosa PBP3; conditions: fluorescence polarization competition binding assay using Bocillin-FL
T2 construct: made in house
T2 sequence (G3XD46 whole entry): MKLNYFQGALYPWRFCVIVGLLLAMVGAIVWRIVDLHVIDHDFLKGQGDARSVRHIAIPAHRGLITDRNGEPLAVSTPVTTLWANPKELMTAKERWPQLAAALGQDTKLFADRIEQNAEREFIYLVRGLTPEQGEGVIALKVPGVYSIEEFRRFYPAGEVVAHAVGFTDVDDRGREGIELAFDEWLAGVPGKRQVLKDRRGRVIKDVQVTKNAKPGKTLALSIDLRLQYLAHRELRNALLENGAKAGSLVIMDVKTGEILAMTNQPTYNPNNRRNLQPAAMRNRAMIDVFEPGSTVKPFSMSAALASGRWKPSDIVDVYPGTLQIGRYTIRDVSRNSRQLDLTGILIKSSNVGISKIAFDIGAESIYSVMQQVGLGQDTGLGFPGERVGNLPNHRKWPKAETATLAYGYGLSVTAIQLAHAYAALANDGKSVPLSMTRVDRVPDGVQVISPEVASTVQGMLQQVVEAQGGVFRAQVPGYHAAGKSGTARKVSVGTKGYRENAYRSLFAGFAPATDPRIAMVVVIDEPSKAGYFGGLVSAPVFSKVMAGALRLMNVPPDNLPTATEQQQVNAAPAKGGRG
Outline: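 Inhibitor competition with Bocillin-FL for P. aeruginosa PBP3 was followed by fluorescence polarization on a Cytation3 (BioTek) reader, using g-factor 0.96, 490 nm excitation and 520 nm emission. The enzyme was at 0.75 μM and the probe at 0.1 μM in Hepes/NaCl/glycerol buffer, 80 μl per well. FP was recorded immediately after probe addition for up to 60 minutes. Potency was expressed as EC50, the concentration that reduces bound probe by 50%.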

Row | Structure (SMILES) | MIC (A. baumannii ATCC 19606) [mg/L] | MIC [1] [mg/L] | MIC (P. aeruginosa ATCC 27853) [mg/L] | MIC (E. coli AG100) [mg/L] | MIC [2] [mg/L] | MIC [3] [mg/L] | MIC (E. coli 901C) [mg/L] | EC50 (E. coli K12 PBP3) [µM] | P. aeruginosa PBP3 Potency (P. aeruginosa PBP3)
1 | NCCN1CCN(C(=O)NC(C(=O)N[C@H]2Cc3cccc(C(=O)O)c3OB2O)c2c(F)c(F)c(O)c(F)c2F)C(=O)C1=O (stereo partly drawn) [Example 174, (3R)-3-(2-(4-(2-aminoethyl)-2,3-dioxopiperazine-1-carboxamido)-2-(2,3,5,6-tetrafluoro-4-hydroxyphenyl)acetamido)-2-hydroxy-3,4-dihydro-2H-benzo[e][1,2]oxaborinine-8-carboxylic acid] | > 128 | 8 to 16 (≈ 13.1 to 26.2 µM) | > 128 | 8 to 16 (≈ 13.1 to 26.2 µM) | 32 to 64 (≈ 52.4 to 105 µM) | > 128 | 0.5 to 1 (≈ 0.818 to 1.64 µM) | < 30 | D (D represents a potency <10 μM)
2 | NCCN1CCN(C(=O)N[C@@H](C(=O)N[C@H]2Cc3cccc(C(=O)O)c3OB2O)c2cc(F)c(O)c(F)c2)C(=O)C1=O (single isomer, unassigned) [Example 159] | > 128 | 2 to 4 (≈ 3.48 to 6.95 µM) | 32 to 64 (≈ 55.6 to 111 µM) | 8 to 16 (≈ 13.9 to 27.8 µM) | 8 to 16 (≈ 13.9 to 27.8 µM) | 32 to 64 (≈ 55.6 to 111 µM) | 0.5 to 1 (≈ 0.869 to 1.74 µM) | < 30 | D (D represents a potency <10 μM)
3 | NCCN1CCN(C(=O)NC(C(=O)N[C@H]2Cc3cccc(C(=O)O)c3OB2O)c2ccc(C(=O)O)cc2O)C(=O)C1=O (stereo partly drawn) [Example 142, (3R)-3-(2-(4-(2-aminoethyl)-2,3-dioxopiperazine-1-carboxamido)-2-(4-carboxy-2-hydroxyphenyl)acetamido)-2-hydroxy-3,4-dihydro-2H-benzo[e][1,2]oxaborinine-8-carboxylic acid] | > 128 | > 128 | > 128 | 32 to 64 (≈ 54.9 to 110 µM) | 32 to 64 (≈ 54.9 to 110 µM) | > 128 | 2 to 4 (≈ 3.43 to 6.86 µM) | 30 to 500 | C (C represents a potency between 10 and 30 μM)
4 | NC1(CN2CCN(C(=O)N[C@@H](C(=O)N[C@H]3Cc4ccc(F)c(C(=O)O)c4OB3O)c3cc(F)c(O)c(O)c3Cl)C(=O)C2=O)CC1 (single isomer, unassigned) [Example 133] | – | – | – | – | – | – | – | 30 to 500 | D (D represents a potency <10 μM)
5 | O=C(O)c1cccc2c1OB(O)[C@@H](NC(=O)[C@H](NC(=O)N1CCN(CCF)C(=O)C1=O)c1c(F)cc(O)cc1F)C2 (single isomer, unassigned) [Example 126] | > 128 | 8 to 16 (≈ 13.8 to 27.7 µM) | > 128 | 8 to 16 (≈ 13.8 to 27.7 µM) | 8 to 16 (≈ 13.8 to 27.7 µM) | 32 to 64 (≈ 55.3 to 111 µM) | < 0.25 | < 30 | D (D represents a potency <10 μM)
6 | CCN1CCN(C(=O)NC(C(=O)N[C@H]2Cc3cccc(C(=O)O)c3OB2O)c2c(F)cc(C(=O)O)cc2F)C(=O)C1=O (stereo partly drawn) [Example 157, (3R)-3-(2-(4-carboxy-2,6-difluorophenyl)-2-(4-ethyl-2,3-dioxopiperazine-1-carboxamido)acetamido)-2-hydroxy-3,4-dihydro-2H-benzo[e][1,2]oxaborinine-8-carboxylic acid] | > 128 | 8 to 16 (≈ 13.6 to 27.2 µM) | > 128 | 32 to 64 (≈ 54.4 to 109 µM) | 32 to 64 (≈ 54.4 to 109 µM) | > 128 | < 0.25 | < 30 | D (D represents a potency <10 μM)
7 | CCN1CCN(C(=O)NC(C(=O)N[C@H]2Cc3cccc(C(=O)O)c3OB2O)c2c(F)cc(N)cc2F)C(=O)C1=O (stereo partly drawn) [Example 181, (3R)-3-(2-(4-amino-2,6-difluorophenyl)-2-(4-ethyl-2,3-dioxopiperazine-1-carboxamido)acetamido)-2-hydroxy-3,4-dihydro-2H-benzo[e][1,2]oxaborinine-8-carboxylic acid] | > 128 | 8 to 16 (≈ 14.3 to 28.6 µM) | > 128 | 32 to 64 (≈ 57.2 to 114 µM) | 32 to 64 (≈ 57.2 to 114 µM) | > 128 | < 0.25 | < 30 | –
8 | O=C(O)c1cccc2c1OB(O)[C@@H](NC(=O)C(NC(=O)N1CCN(CCF)C(=O)C1=O)c1c(F)cc(O)cc1F)C2 (mixture of isomers) [Example 119, (3R)-3-(2-(2,6-difluoro-4-hydroxyphenyl)-2-(4-(2-fluoroethyl)-2,3-dioxopiperazine-1-carboxamido)acetamido)-2-hydroxy-3,4-dihydro-2H-benzo[e][1,2]oxaborinine-8-carboxylic acid] | > 128 | 8 to 16 (≈ 13.8 to 27.7 µM) | > 128 | 8 to 16 (≈ 13.8 to 27.7 µM) | 8 to 16 (≈ 13.8 to 27.7 µM) | 32 to 64 (≈ 55.3 to 111 µM) | < 0.25 | < 30 | –
9 | NCCN1CCN(C(=O)N[C@@H](C(=O)N[C@H]2Cc3ccc(F)c(C(=O)O)c3OB2O)c2cc(F)c(O)c(O)c2Cl)C(=O)C1=O (single isomer, unassigned) [Example 179] | – | – | – | – | – | – | – | < 30 | D (D represents a potency <10 μM)
10 | NS(=O)(=O)c1cc(O)cc(C(NC(=O)N2CCN(Cc3c(F)cc(O)c(O)c3Cl)C(=O)C2=O)C(=O)N[C@H]2Cc3cccc(C(=O)O)c3OB2O)c1 (stereo partly drawn) [Example 132, (3R)-3-(2-(4-(2-chloro-6-fluoro-3,4-dihydroxybenzyl)-2,3-dioxopiperazine-1-carboxamido)-2-(3-hydroxy-5-sulfamoylphenyl)acetamido)-2-hydroxy-3,4-dihydro-2H-benzo[e][1,2]oxaborinine-8-carboxylic acid] | – | – | – | – | – | – | – | 30 to 500 | D (D represents a potency <10 μM)
11 | NS(=O)(=O)Nc1cccc(C(NC(=O)N2CCN(Cc3c(F)cc(O)c(O)c3Cl)C(=O)C2=O)C(=O)N[C@H]2Cc3cccc(C(=O)O)c3OB2O)c1 (stereo partly drawn) [Example 131, (3R)-3-(2-(4-(2-chloro-6-fluoro-3,4-dihydroxybenzyl)-2,3-dioxopiperazine-1-carboxamido)-2-(3-(sulfamoylamino)phenyl)acetamido)-2-hydroxy-3,4-dihydro-2H-benzo[e][1,2]oxaborinine-8-carboxylic acid] | – | – | – | – | – | – | – | < 30 | D (D represents a potency <10 μM)
12 | CCN1CCN(C(=O)NC(C(=O)N[C@H]2Cc3cccc(C(=O)O)c3OB2O)c2c(F)cc(O)cc2F)C(=O)C1=O (stereo partly drawn) [Example 105, (3R)-3-(2-(2,6-difluoro-4-hydroxyphenyl)-2-(4-ethyl-2,3-dioxopiperazine-1-carboxamido)acetamido)-2-hydroxy-3,4-dihydro-2H-benzo[e][1,2]oxaborinine-8-carboxylic acid] | – | – | – | 8 to 16 (≈ 14.3 to 28.6 µM) | 8 to 16 (≈ 14.3 to 28.6 µM) | 32 to 64 (≈ 57.1 to 114 µM) | < 0.25 | < 30 | D (D represents a potency <10 μM)
13 | NCCN1CCN(C(=O)N[C@@H](C(=O)N[C@H]2Cc3cccc(C(=O)O)c3OB2O)c2cc(Cl)c(O)c(Cl)c2)C(=O)C1=O (single isomer, unassigned) [Example 166] | > 128 | 2 to 4 (≈ 3.29 to 6.58 µM) | 8 to 16 (≈ 13.2 to 26.3 µM) | 8 to 16 (≈ 13.2 to 26.3 µM) | 32 to 64 (≈ 52.6 to 105 µM) | 32 to 64 (≈ 52.6 to 105 µM) | < 0.25 | < 30 | –
14 | C[C@@H](O)[C@@H](NC(=O)N1CCN(CCNC(=O)c2c(F)cc(O)c(O)c2Cl)C(=O)C1=O)C(=O)N[C@H]1Cc2ccc(F)c(C(=O)O)c2OB1O [Example 102, (R)-3-((2R,3R)-2-(4-(2-(2-chloro-6-fluoro-3,4-dihydroxybenzamido)ethyl)-2,3-dioxopiperazine-1-carboxamido)-3-hydroxybutanamido)-7-fluoro-2-hydroxy-3,4-dihydro-2H-benzo[e][1,2]oxaborinine-8-carboxylic acid] | – | – | – | – | – | – | – | 30 to 500 | D (D represents a potency <10 μM)
15 | NC1(CN2CCN(C(=O)N[C@@H](C(=O)N[C@H]3Cc4ccc(F)c(C(=O)O)c4OB3O)c3c(F)cc(O)c(O)c3Cl)C(=O)C2=O)CC1 (single isomer, unassigned) [Example 134] | – | – | – | – | – | – | – | 30 to 500 | D (D represents a potency <10 μM)
16 | NCCCN1CCN(C(=O)N[C@@H](C(=O)N[C@H]2Cc3ccc(F)c(C(=O)O)c3OB2O)c2cc(F)c(O)c(O)c2Cl)C(=O)C1=O (single isomer, unassigned) [Example 180] | – | – | – | – | – | – | – | < 30 | D (D represents a potency <10 μM)
